As usually defined, the AUC(0-inf) is the area under the concentration-time curve extrapolated to infinity. A lower AUC(0-inf) goes with less exposure. As usually defined, the clearance is the volume of plasma or blood freed of the substance per unit of time. Read a low clearance as a low capacity for elimination. The bioavailability is the share of a dose that reaches the circulation, judged against a reference dose that is usually intravenous. Low values mean poor availability, high ones good availability. As usually defined, the half-life is the time in which the quantity being followed falls by half. Lower therefore signals fast loss.

“And” between values parts separate entries of the source, which are not always exact repeats. Equal values may be shown once.

Data on four compounds can be found in patent US20240350434A1, “METHODS FOR TREATING MAJOR DEPRESSIVE DISORDER AND TREATMENT-RESISTANT DEPRESSION” (iX Biopharma Limited, priority 2020, published 2024).

Data set [1] concerns NMDA receptors. To be noted: cited from earlier work.
The test system of data set [2] is mouse tests of antidepressant efficacy. To be noted: up to a 30-fold range of doses, multiple mouse tests; cited from earlier work.
Data set [3] is described as follows: Open label two way randomized crossover pharmacokinetic / absolute bioavailability study, SL ketamine wafer 25 mg vs 10 mg i.v. infusion. To be noted: for clearance: CL, clearance following i.v. administration; for bioavailability: other: sublingual, F; for half-life: median (min-max in text) of eight healthy volunteers; for extrapolated portion of the AUC(0,∞): min-max. On the procedure: The study was of open label two way randomized, crossover design in eight healthy male volunteers who all gave written informed consent. Each participant received either a single 10 mg i.v. dose as a constant rate 30 min infusion or a 25 mg SL dose of ketamine in two treatment periods with a 7 day washout. Both the SL and i.v. doses, and the duration of the i.v. infusion were chosen to ensure adequate characterization of the plasma concentration-time profiles and good quality estimates of pharmacokinetic (PK) variables for both routes of administration. […] The sequence of the two formulations was according to a computer-generated randomization code.
The SL wafer formulation was a freeze dried solid dispersion of racemic ketamine hydrochloride in a porous matrix using lactose as a filling agent. Prior to administration of the wafer the sublingual space was rinsed with 3 ml of water after which the wafer was placed sublingually by a member of the study staff. The participants were instructed to avoid chewing or swallowing of the wafer within 5 min of its placement. For i.v. administration, commercially available ketamine (Ketalar®) was diluted to 30 ml in saline and administered over 30 min using a volumetrically controlled syringe driver. The infusion line was primed prior to start of the infusion.
Pharmacokinetic blood sampling and clinical assessment of local tolerability and safety were carried out for 24 h following both dosing occasions.
Key inclusion criteria were healthy adult males aged 18-65 years with a BMI 19-30 kg m^−2 in good general health including mental health as assessed by the Symptom Checklist-90-R (SCL-90-R®), a screening instrument which evaluates a broad range of psychological problems and symptoms of psychopathology. Pharmacokinetic blood samples (5 ml), were taken following both i.v. and SL administration at predose 5, 10, 15, 30, 35 and 45 min, and at 1.0, 1.5, 2.0, 2.5, 3.0, 4.0, 6.0, 8.0,12 and 24 h post-dose.
Whole blood was drawn into prechilled lithium heparin tubes and remained on ice post-sample collection until centrifugation. Samples were centrifuged at 1800 g for 10 min in a refrigerated centrifuge at 4° C. Plasma was decanted and frozen at-80° C.
Safety laboratory testing (biochemistry, haematology and urinalysis) was performed predose and at hour 24 post-dose administration in each period. Quantification of the plasma concentrations of racemic ketamine was performed using a validated HPLC method with u.v. detection, a lower limit of quantification (LLOQ) of 2 ng ml^−1 and <20% bias and imprecision.
Standard non-compartmental methods using the PK Solver plug-in for Microsoft
Excel were used to derive pharmacokinetic variables, except for Cmax, Tmax and Tlast, which were taken as observations from the plasma concentration-time profile of each participant. Actual times were used when reporting Tmax. The terminal rate constant (λz) was estimated by log-linear regression, of the slope of the natural log plasma concentration vs. time curve where λz=−1×slope. The linear regression in the terminal phase used the last three to six data points. The terminal t1/2 was calculated as t1/2=ln(2)/λz.
The area under the plasma concentration time curve from time zero to the last quantifiable concentration (AUC(0,tlast)) was obtained using the linear trapezoidal method and extrapolated to infinity to obtain the total area, AUC(0,∞), with Clast/λz, where Clast is the last quantifiable plasma concentration.

Data set [4] concerns treatment-resistant major depressed patients. To be noted: cited from earlier work.
Data set [5] in a line: Clinical assessment of local tolerability and safety in the crossover study. The format is in vivo, human. On the procedure:
To assess the local tolerability profile of the SL formulation, modified Likert scales (0-10) were recorded at 5, 10, 15, 30 and 45 min and 1 h post-dose administration at various time points for both the SL and i.v. formulation: • Mucosal irritation • Burning sensation • Bitterness • Nausea • Residual grittiness in the mouth
Safety assessments included scheduled adverse event probes, spontaneous adverse event (AE) reporting, physical examination, routine laboratory investigations, ECGs and vital sign evaluation.
Vital signs (including systolic and diastolic blood pres-sure, pulse, respiratory rate and body temperature) were performed predose and at hours 0.5, 1, 2, 4, 6, 8, 12 and 24 h post-dose. Pulse oximetry was recorded predose and continuously for the first 3 h post-dose administration

For data set [6] the following is noted: cited from earlier work.
For data set [7] the following is noted: sublingually administered ketamine; cited from earlier work.
Setting [8] is: individual subjects, 10 mg as 30 min i.v. infusion.
[9] abbreviates: individual subjects, 25 mg sublingually as a wafer.
The mark [10] stands for this setting: i.v. infusion, treatment-resistant major depressed patients.
Where [11] appears, read: both routes (10 mg i.v., 25 mg SL).

For the compound `CN[C@]1(c2ccccc2Cl)CCCCC1=O` [S enantiomer, (S)-ketamine], the “potency relative to R enantiomer (times more potent)” value in data set [1] (in humans in vivo) was “approximately 3 times”.
Consider `CN[C@@]1(c2ccccc2Cl)CCCCC1=O` [(R)-ketamine], for which the “antidepressant efficacy compared with (S)-ketamine” value in data set [2] is given as “superior to (S)-ketamine”.
With `NC1(c2ccccc2Cl)CCCCC1=O` (centres unmarked) [norketamine], in data set [1], the “potency as NMDA antagonists relative to parent molecules (times less)” value is on record as 5-8 times.
For the compound `CNC1(c2ccccc2Cl)CCCCC1=O` (racemic) [RS ketamine, ketamine], the “Cmax, peak plasma concentration (i.v.)” value in data set [3] (Gmean of eight healthy volunteers, 10 mg as 30 min i.v. infusion) is 128.1 ng/ml^−1; in data set [3] (individual subjects, 10 mg as 30 min i.v. infusion, healthy volunteers), 124.2 ng/ml^−1 and 120.4 ng/ml^−1 and 101.9 ng/ml^−1 and 83.2 ng/ml^−1 and 81.1 ng/ml^−1 and 226.7 ng/ml^−1 and 166.3 ng/ml^−1 and 160.3 ng/ml^−1. For the same compound, the “Cmax, peak plasma concentration (SL)” value in data set [3] (Gmean of eight healthy volunteers, 25 mg sublingually as a wafer) was 71.1 ng/ml^−1; in data set [3] (individual subjects, 25 mg sublingually as a wafer, healthy volunteers) it was 60.2 ng/ml^−1 and 50.0 ng/ml^−1 and 75.1 ng/ml^−1 and 51.8 ng/ml^−1 and 61.2 ng/ml^−1 and 88.8 ng/ml^−1 and 128.3 ng/ml^−1 and 76.7 ng/ml^−1. For the same compound, the “first quantifiable ketamine plasma concentrations observed at” value in data set [3] (all participants, both administration routes (i.v. and SL), first post-dose sample) amounted to 5 min. Besides, the AUC(0-inf) in data set [3] (human, plasma, 25 mg, AUC(0,∞) (SL), individual subjects, 25 mg sublingually as a wafer) came to 204 ng·h/mL; in data set [3] (human, plasma, iv, 10 mg, AUC(0,∞) (i.v.), individual subjects, 10 mg as 30 min i.v. infusion), 270 ng·h/mL; in data set [3] (male, human, plasma, 25 mg, AUC(0,∞) (SL), Gmean of eight healthy volunteers, 25 mg sublingually as a wafer), 185 ng·h/mL; in data set [3] (male, human, plasma, iv, 10 mg, AUC(0,∞) (i.v.), Gmean of eight healthy volunteers, 10 mg as 30 min i.v. infusion), 255 ng·h/mL. For the same compound, the clearance in data set [3] (human, plasma, iv, 10 mg, individual subjects, 10 mg as 30 min i.v. infusion) was 997 mL/min; in data set [3] (male, human, plasma, iv, 10 mg, Gmean of eight healthy volunteers, 10 mg as 30 min i.v. infusion), 653 mL/min. For the same compound, the bioavailability was found to be 30% in data set [3] (human, plasma, 25 mg, individual subjects, 25 mg SL wafer vs 10 mg i.v., dose adjusted AUC(0,∞)) and 29% in data set [3] (male, human, plasma, 25 mg, median (lower, upper 90% CI limit in text) of eight healthy volunteers, 25 mg SL wafer vs 10 mg i.v.). Moreover, the “AUC(0,∞) (i.v.)” value in data set [3] (setting [8]) is 289.2 ng·h/mL and 299.4 ng·h/mL and 261.0 ng·h/mL and 167.2 ng·h/mL and 282.7 ng·h/mL and 243.2 ng·h/mL and 254.8 ng·h/mL. In addition, the “CL, clearance following i.v. administration” value in data set [3] (setting [8]) was 37.0 L/h and 34.6 L/h and 33.4 L/h and 36.3 L/h and 35.4 L/h and 41.1 L/h and 39.3 L/h. For the same compound, the “Vz, apparent volume of distribution following i.v. administration” value in data set [3] (setting [8]) was 253 L and 300 L and 164 L and 385 L and 375 L and 126 L and 158 L and 283 L. Moreover, the “F, bioavailability” value in data set [3] (individual subjects, 25 mg SL wafer vs 10 mg i.v., dose adjusted AUC(0,∞)) is 23% and 38% and 28% and 27%. Moreover, the “AUC(0,∞) (SL)” value in data set [3] (setting [9]) was 171.9 ng·h/mL and 211.3 ng·h/mL and 166.1 ng·h/mL and 151.6 ng·h/mL and 202.9 ng·h/mL and 162.5 ng·h/mL and 134.3 ng·h/mL. Besides, in data set [3] (setting [9]), the “t1/2, terminal half-life (SL)” value is 5.5 h and 3.5 h and 2.3 h and 4.6 h and 5.1 h and 2.9 h and 1.8 h and 3.2 h. Besides, the half-life is 3.4 h in data set [3] (male, human, plasma, 25 mg, t1/2, terminal half-life (SL), 25 mg sublingually as a wafer) and 4.5 h in data set [3] (male, human, plasma, iv, 10 mg, t1/2, terminal half-life (i.v.), 10 mg as 30 min i.v. infusion). For the same compound, the Vd in data set [3] (male, human, plasma, iv, 10 mg, Vz, apparent volume of distribution following i.v. administration, Gmean of eight healthy volunteers, 10 mg as 30 min i.v. infusion) was found to be 237 L. The “extrapolated portion of the AUC(0,∞)” value in data set [3] (SL dosing) is 2-9%; in data set [3] (i.v. dosing), 3-7%. For the same compound, the “treatment of non-melancholic or anxious depression patients as measured by MADRS” value in data set [4] (6 repeated IV doses 0.5 mg/kg, Wang et al) is on record as “effectively treated”. Moreover, the “patients who maintained response for at least 7 days” value in data set [4] (setting [10]) is 35%. In addition, the “time to manifestation of antidepressant effects post-infusion” value in data set [4] (setting [10]) is not above 2 h. In addition, in data set [4] (single IV dose 0.5 mg/kg, Zarate et al), the “anti-depressive effects as measured by MADRS” value is given as “caused anti-depressive effects”. In addition, the “efficacy for the treatment of depression, comparison with esketamine” value in data set [4] (single dose IV 0.5 mg/kg, Bahji et al meta-analysis) is recorded as “more efficacious than intransal esketamine”. The “onset of adverse events” value was in the range of 6 to 22 min in data set [5] (10 mg i.v.) and 5 to 18 min in data set [5] (25 mg SL dosing). Also, in data set [5] (SL), the “adverse events terrible taste in mouth, blurred vision, decreased sensation in arm and dizziness, number of each” value is given as “one”. The “duration of adverse events” value in data set [5] (setting [11]) is “less than 1 h”. In addition, the serious adverse events entry in data set [5] (setting [11]) is reported as “no serious adverse events”. Moreover, the “severity of adverse events” value in data set [5] (setting [11]) is reported as “mild”. Besides, the “local and systemic tolerability” value in data set [5] (both routes of administration) is “very good”. The “adverse events thought to be related to treatment, number reported” value in data set [5] (both routes, eight volunteers) was “Nineteen”. In data set [5] (i.v.), the “adverse events body feels heavy, dry mouth and visual disturbance, number of each” value is “one”. The “duration of action as an anaesthetic” value in data set [6] (depending on dose) is on record as “approximately 30 minutes”. In data set [6] (racemic drug), the terminal half-life result is reported as “approximately 3 hours”. Also, the “bioavailability values reported in the literature” value in data set [7] is given as 24-32.2%.
